# In US20170239310A1, “Composition for Promoting Anti-Diabetic and Anti-Obesity Effects, Comprising Herbal Extract” (DONGGUK UNIVERSITY GYEONGJU CAMPUS INDUSTRY- ACADEMY …, priority 2014, published 2017):
# “Also recorded” adds a separate entry of the source.
# Assays:
# [1] = DPPH free radical scavenging activity; assay type: biochemical; conditions: 300 μM DPPH, 37° C., 30 minutes
# Experimental: 40 μl of a sample was mixed with 760 μl of 300 μM 2,2-diphenyl-1-picrylhydrazyl (DPPH) and the mixture was incubated at 37° C. for 30 minutes, and then the mixture was aliquoted to each well of a 96-well plate in triplicate and absorbance was measured at 515 nm using a microplate reader. BHT was used as a positive control group.
# AMPK-α = AMPK-α gene expression (real-time PCR) in RAW 264.7 cells; assay type: cell-based; conditions: normal group (N) 0.80
# Experimental: (§1) Total RNA was separated and purified using TRIsure (Bioline, USA) according to a protocol. 1 μg of total RNAs was subjected to a reverse transcription reaction using a cDNA synthesis kit (Sprint™RT Complete Oligo-(dT)18, Clontech, Mountain View, Calif., USA) according to a protocol for synthesizing first strand cDNA. The produced RT-PCR sample was subjected to real-time PCR reaction, in which the final reaction volume was adjusted to 20 μl and Light Cycler-Fast Start DNA Master SYBR Green (Roche Applied Science, Indianapolis, Ind., USA) and a Light Cycler instrument (Roche Applied Science) were used.
# (§2) PCR amplification was performed according to PCR steps, consisting of a pre-incubation step at 95° C. for 10 minutes and 35 (for beta-actin) or 45 (for C/EBPa) cycles of amplification (denaturation at 95° C. for 10 seconds, annealing at 52° C. for 10 seconds, and extension at 72° C. for 15 seconds). Total RNA was separated and purified using TRIsure (Bioline, USA) according to a protocol. 1 μg of total RNAs was subjected to a reverse transcription reaction using a cDNA synthesis kit (Sprint™RT Complete Oligo-(dT)18, Clontech, Mountain View, Calif., USA) according to a protocol for synthesizing first strand cDNA. […]
# IL-6 = IL-6 gene expression (real-time PCR) in RAW 264.7 cells; conditions: normal group (N) 1.11
# RAW 264.7 cells = assay: LPS-induced nitrogen monoxide (NO) generation, GRIESS reaction; assay type: cell-based; conditions: 1 μg/ml LPS, 24 hours, compared to LPS group / metformin alone
# Experimental: To compare an anti-inflammatory function, an in vitro model of LPS-induced nitrogen monoxide (NO) generation was used in an experiment, and NO measurement was carried out using a cell supernatant based on the GRIESS reaction (Green et al., 1982). RAW 264.7 cells were seeded at a density of 1.5×10^5 cells/ml and pre-treated with samples diluted at various concentrations, and after 1 hour, the pretreated cells were treated with 1 μg/ml of lipopolysaccharide (LPS: Sigma, St Louis, Mo., USA), followed by incubation for 24 hours. 50 μl of a cell culture supernatant and 50 μl of 1% (w/v) sulfanilamide, a GRIESS reagent, were added to each well of a 96-well plate, and the 96-well plate shaded from light was incubated at room temperature for 10 minutes and then 50 μl of 0.1% (w/v) N-1-naphthylethylenediamine dissolved in 2.5% (v/v) phosphoric acid was added to each well of the 96-well plate and mixed, followed by incubation under dark conditions for 10 minutes. Absorbance was read at 540 nm using a microplate reader (Molecular Devices, CA, USA) within 30 minutes after finishing incubation. NO production was calculated using a nitric oxide standard solution.
# in vivo = conditions: rat, po, 100 mg/kg
# PPAR-α = PPAR-α gene expression (real-time PCR) in RAW 264.7 cells; assay type: cell-based; conditions: normal group (N) 1.01
# Experimental: as §1, §2
# TNF-α = TNF-α gene expression (real-time PCR) in RAW 264.7 cells; assay type: cell-based; conditions: normal group (N) 1.01
# XBP-1 = XBP-1 gene expression (real-time PCR) in RAW 264.7 cells; assay type: cell-based; conditions: normal group (N) 1.00
# OLETF/LETO rats = assay: Intraperitoneal insulin tolerance test (IPITT); assay type: in vivo, rat; conditions: metformin 100 mg/kg alone or with 200 mg/kg extract, insulin 1 U/kg IP
# 3T3-L1 cells = assay: Fat cell differentiation (Oil red O staining); assay type: cell-based; conditions: compared to control group / metformin alone
# Experimental: After seeding 3T3-L1 cells into a 6-well plate at a density of 5×10^5 cells/well, the cells were cultured until reaching full confluence. The pre-existing culture medium for the cells was exchanged with DMEM (differentiation media) containing 1 μM dexamethasone, 0.5 mM IBMX, and 10 μg/ml insulin, and the cells were cultured for 48 hours and then were treated with DMEM (maturation media) containing 10 μg/ml insulin to induce differentiation. Differentiation-induced fat cells produced as a result of the process were treated with samples at various concentrations or a positive control group, and inhibitory effects on fat cell differentiation were analyzed using an Oil red O staining method, TG, and a TC assay.
# RIN-m5F insulinoma cells = assay: Insulin secretion assay (rat insulin ELISA); assay type: cell-based; conditions: […] metformin with extract, 20 mM glucose
# Experimental: A portion of cell culture supernatant was subjected to centrifugation at 4° C. for 10 minutes, and after centrifugation, a supernatant was collected and stored at −20° C. for further use. The amount of secreted insulin was measured using a rat insulin ELISA kit (Mercodia, Sweden), and an insulin secretion amount per gram of proteins was calculated by measuring the concentration of cellular proteins in each well.
# HepG2 cells = assay: Intracellular reactive oxygen species (ROS) activity, DHR123/FACS; assay type: cell-based; conditions: 6 hours, compared to normal group / metformin alone
# Experimental: After centrifugation at 1200 g for 5 minutes, a supernatant was discarded, and the remaining HepG2 cells were treated with 5 μg/ml of DHR123, followed by incubation at 37° C. for 30 minutes. After additional centrifugation for 5 minutes, PBS washing was performed two times and filtration was performed. Intracellular reactive oxygen species activity was measured based on the value of fluorescence intensity obtained from FACS analysis.
# L6 rat myoblast cells = assay: Glucose uptake assay (2-NBDG); assay type: cell-based; conditions: 2-NBDG 100 μg/ml; compared to control group / metformin alone
# Source text: Undifferentiated L6 rat myoblast cells were differentiated into myotube cells using 2% horse serum. […] When performing measurement, apigenin, a compound that inhibits glucose uptake, was used as a control.
DPPH free radical scavenging IC50 [1] [µg/mL],CL renal (in vivo; blood and urine) [mL/min/kg],AUC(0-t) (in vivo; blood) [ng·h/mL],CL/F (in vivo; blood) [mL/min/kg],Cmax (in vivo; blood) [ng/mL],Tmax (in vivo; blood) [h],SMILES,gene expression level of AMPK-α (AMPK-α),gene expression level of IL-6 (IL-6),production amount of nitrogen monoxide (RAW 264.7 cells),gene expression level of PPAR-α (PPAR-α),gene expression level of TNF-α (TNF-α),gene expression level of XBP-1 (XBP-1),"insulin resistance (IPITT, blood sugar AUC) (OLETF/LETO rats)",lipid formation attributed to differentiation of 3T3-L1 preadipocytes (3T3-L1 cells),amount of insulin secretion (RIN-m5F insulinoma cells),intracellular ROS activity (HepG2 cells),capacity of glucose uptake (L6 rat myoblast cells)
113.85,–,–,–,–,–,Cc1cc(C(C)(C)C)c(O)c(C(C)(C)C)c1 [BHT],–,–,–,–,–,–,–,–,–,–,–
–,40.3 ± 13.8,29000,54.3 ± 15.4,7650 ± 3100,1.5,"CN(C)C(=N)N=C(N)N [Metformin, metformin]",0.76,1.91,production amount of nitrogen monoxide was decreased,0.68,1.34,1.01,tendency to decrease; also recorded: tendency of decreasing,tendency of decreasing lipid formation,significant changes in the amounts of insulin secretion were not observed,tendency of decreasing intracellular reactive oxygen species (ROS) activity,increased capacity of glucose uptake
